Where two headings read alike, the source gives them in different places.
Experiments:
[1] = test system: adult worker honeybees (Apismellifera); details: acute contact; cited from earlier work
[2] = test system: adult worker honeybees (Apismellifera); details: acute oral; cited from earlier work
[3] = test system: adult worker honeybees (Apismellifera); details: in vivo, po
M. brassicae larvae [4] = test system: M. brassicae larvae; parameters: species or system Mamestra brassicae; details: in vivo
[5] = test system: cereal aphid Sitobion avenae; details: in vivo
M. brassicae larvae [6] = test system: M. brassicae larvae; parameters: species or system Mamestra brassicae; details: in vivo; remark: listed apart in the source
[7] = test system: central nerve chord of M. brassicae larvae; details: in vivo
Honeybees = details: in vivo
[8] = test system: tomato moth (Lacanobia oleracea); type: in vivo
Method: Effect of Transgenic Arabidopsis Expressing Fusion Proteins when Fed to Tomato Moth (Lacanobia oleracea)
20 neonate Lacanobia oleracea larvae were placed in pots (4 replicates, 5 larvae per pot) and allowed to feed on detached leaves of transgenic Arabidopsis plants. Survival was measured over the course of a 14-day period and weights were measured at days 11 and 14. Assays were repeated giving a total sample number of 40. Treatments used were control, GNA-expressing, ButalT/GNA fusion protein expressing, and GNA/ButalT fusion protein expressing. Two independent lines expressing the ButalT/GNA fusion protein (lines 40 and 45) were used.

Heliothis virescens = details: in vivo; cited from earlier work
[9] = test system: cotton bollworm Heliothis armigera; details: in vivo; cited from earlier work
M. brassicae larvae [10] = test system: M. brassicae larvae; parameters: species or system Mamestra brassicae; details: in vivo; remark: listed apart in the source
newborn mice = details: mouse, in vivo; cited from earlier work
M. brassicae larvae [11] = test system: M. brassicae larvae; parameters: species or system Mamestra brassicae; details: in vivo; remark: listed apart in the source
[12] = test system: vertebrate-muscle preparations; details: cited from earlier work

Molecule: C/C(=N\C#N)N(C)Cc1ccc(Cl)nc1 [Acetamiprid]
- reported LD50 [1]: 8.09 μg/bee
- reported LD50 [2]: 14.5 ug/bee

Molecule: Galanthus nivalis agglutinin [GNA]
- LD50 [3]: > 100 μg/bee
- LD50 to honeybees [3]: greater than 100 ug/bee
- effects on mortality [3]: smaller effects on mortality than acetamiprid
- effect upon larvae when injected (M. brassicae larvae [4]): no effect
- survival compared to control treatments [5]: does not have a significant effect on the survival
- average weight of surviving larvae reduced by (M. brassicae larvae [6]): 45%
- survival (larvae remained) (M. brassicae larvae [6]): 80%
- bands in nerve tissue (anti-GNA Western blot) [7]: not observed
- presence in nerve chord and haemolymph samples (anti-GNA Western blot) [7]: positive immunoreactivity
- toxicity by injection (Honeybees): higher toxicity than FP5
- survival ([8]; first assay (FIG. 16), 14 days, ButalT/GNA line 40, GNA line 3, control 93%): 90%
- survival / larval mortality compared to controls ([8]; neonate larvae, conclusions): no effect on larval mortality
- reduction in mean weight ([8]; second assay, days 11 and 14, vs control): approx. 50%

Molecule: ω-ACTX-Hv1a
- symptoms after injection of higher doses (M. brassicae larvae [4]): displayed symptoms of paralysis
- PD50 (Heliothis virescens): 250 pmol/g
- ED50 [9]: 3 nmol/g
- larval feeding / larval growth (M. brassicae larvae [10]): no reduction in larval growth
- oral activity (M. brassicae larvae [10]; po): not orally active
- effect on newborn mice (newborn mice): harmless
- larval growth (M. brassicae larvae [11]): no effect on larval growth
- effect on vertebrate-muscle preparations [12]: no effect
